According to ChEMBL document CHEMBL1156829 (Proc Natl Acad Sci U S A, 2008):

Legend:
Plasmodium falciparum [1] = assay: NOVARTIS: Inhibition of Plasmodium falciparum 3D7 (drug-susceptible) proliferation in erythrocyte-based infection assay; type: functional, organism-based; settings: Plasmodium falciparum, 3D7
Plasmodium falciparum [2] = assay: NOVARTIS: Inhibition of Plasmodium falciparum W2 (drug-resistant) proliferation in erythrocyte-based infection assay; type: functional, organism-based; settings: Plasmodium falciparum, W2; read-out: EC50
[3] = NOVARTIS: Cytotoxicity against human hepatocellular carcinoma cell line (Huh7); type: toxicity, cell-based, Huh-7; settings: Huh7 cells (hepatocellular carcinoma cell line)

Compound | EC50 (Plasmodium falciparum [1]) | EC50 (Plasmodium falciparum [2]) | CC50 [3]
CS(=O)(=O)N1CCCCC1C(=O)NCc1ccc(OC2CCN(CC(c3ccccc3)c3ccccc3)CC2)cc1 (stereo not drawn) | 1020 nM | 22.9 nM | > 10000 nM
O=c1c2sccc2nc(SCc2cccc([N+](=O)[O-])c2)n1-c1ccc(Br)cc1 | 3310 nM | 1020 nM | > 100000 nM
COc1cccc(C(NC(=O)c2ccccc2)c2ccc3cccnc3c2O)c1 (stereo not drawn) | 134 nM | 216 nM | > 100000 nM
COc1ccc([C@@H]2Nc3ccc(C(C)=O)cc3[C@@H]3C=CC[C@@H]32)cc1[N+](=O)[O-] | > 1250 nM | 1760 nM | > 10000 nM
CCCN1CCc2c(sc3nc(SC)n(-c4ccccc4)c(=O)c23)C1 | 947 nM | 627 nM | > 100000 nM
CC(C)CC(=O)OC1C(N2CCCCC2)c2c(ccc(/C=C/C(=O)N3CCCCC3)c2O)OC1(C)C (stereo not drawn) | 920 nM | 975 nM | > 10000 nM
CCCCCN(C(=O)c1ccc2ccccc2c1)C(CC)c1nc2ccccc2c(=O)n1-c1ccccc1OC (stereo not drawn) | 752 nM | > 1230 nM | > 10000 nM
CCCOc1ccc2c(c1)C(=NN=C(N)N)c1cc(OCCC)ccc1-2 | 270 nM | 323 nM | > 10000 nM
CCN(CC)CCCNC(=S)N(CCc1cccc(C)c1)Cc1cc2cc(OC)c(OC)cc2[nH]c1=O | 2430 nM | 747 nM | 18600 nM
CN1C2CCC1/C(=C\c1ccsc1)C(=O)/C2=C\c1ccsc1 | > 1300 nM | > 1190 nM | > 10000 nM
Oc1ccc(-c2cccnc2)cc1CNC1C2CC3CC(C2)CC1C3 (stereo not drawn) | 459 nM | 195 nM | > 100000 nM
S=C(NN=Cc1ccccn1)NC1CC2CC1C1C=CCC21 (stereo not drawn) | 123 nM | 109 nM | > 1140 nM
N#Cc1ccc2c(c1)nc1c3ccc4c5c(ccc(c(=O)n21)c53)C(=O)NC4=O | 3940 nM | 867 nM | > 100000 nM
O=C(O)CCCCCNc1ncnc2sc3c(c12)CCCC3 | > 1250 nM | 869 nM | > 10000 nM
COC(=O)c1c(S(=O)(=O)NCCN(C)C)sc2c1CCN(CC(C)c1ccccc1)C2 (stereo not drawn) | 1610 nM | > 1320 nM | > 10000 nM
O=C1C=C(Nc2cccc(C(F)(F)F)c2)C(=O)c2ccccc21 | 549 nM | 519 nM | > 100000 nM
CC(C)(C)NS(=O)(=O)c1cc(Cl)ccc1Cl | > 1250 nM | 730 nM | > 10900 nM
O=C(NCc1cc2cc3c(cc2nc1Cl)OCO3)c1ccco1 | > 586 nM | > 1250 nM | > 10000 nM
CS[C@H]1SC[C@H]2C(=O)N(C)[C@@H](C(C)C)C(=O)OC[C@@H](NC(=O)c3cnc4ccccc4n3)C(=O)N[C@@H](C)C(=O)N(C)[C@@H]1C(=O)N(C)[C@@H](C(C)C)C(=O)OC[C@@H](NC(=O)c1cnc3ccccc3n1)C(=O)N[C@@H](C)C(=O)N2C [ECHINOMYCIN] | 73.7 nM | 524 nM | > 10000 nM
COC(=O)C1C(=O)C2=C(CC1C)NC(=O)CC2c1ccc(Cl)cc1Cl (stereo not drawn) | 991 nM | 128 nM | > 100000 nM
O=[N+]([O-])c1ccc2nc(NC3CCCCC3)c(NC3CCCCC3)nc2c1 | 2490 nM | 2640 nM | 14700 nM
COc1cc(NC(C)CCCN(Cc2ccc(F)cc2)C(=O)Nc2ccc(Br)cc2)c2ncccc2c1 (stereo not drawn) | 927 nM | 691 nM | 4240 nM

Compound | EC50 (Plasmodium falciparum [1]) | EC50 (Plasmodium falciparum [2]) | CC50 [3]
CC(C)N(CC(=O)Nc1cc(C(C)(C)C)nn1-c1ccc(Cl)c(Cl)c1)C(=O)c1ccc(Cl)c(Cl)c1 | 1010 nM | 356 nM | > 10000 nM
c1cncc(-c2cc(NCCCn3ccnc3)nc(-c3ccncc3)n2)c1 | 1090 nM | 956 nM | > 10000 nM
Cc1c(C(=O)NCCN2CCCC2)cnn1-c1ncc2c(n1)-c1ccccc1SC2 | 525 nM | < 14.3 nM | > 10000 nM
Cc1ccn(CC(=O)N2CCOc3c(cc(-c4csc5ccccc45)cc3OCCc3ccccn3)C2)n1 | 823 nM | 730 nM | 39000 nM
O=C(C[n+]1ccccc1)NN=Cc1ccc(Cl)c(Cl)c1 | 2840 nM | 3380 nM | > 100000 nM
CC(=O)C1=C(O)C(=O)N(c2ccc(Br)cn2)C1c1ccccc1[N+](=O)[O-] (stereo not drawn) | > 9610 nM | > 12500 nM | > 100000 nM
COc1ccc(-c2cnnc(NN=Cc3ccc([N+](=O)[O-])o3)n2)cc1 | > 1250 nM | > 464 nM | > 10000 nM
COc1ccc(C2Nc3ccc(C(C)=O)cc3C3C=CCC32)cc1[N+](=O)[O-] (stereo not drawn) | 2150 nM | 2570 nM | > 100000 nM
S=C(NC1CCCCC1)NC1CC2CCC(C1)N2Cc1ccccc1 (stereo not drawn) | 2970 nM | 468 nM | 51400 nM
Cc1ccc(F)cc1NC(=O)Cn1c2ccccc2c(=O)c2cc(Cl)ccc21 | 1180 nM | 694 nM | > 100000 nM
COc1ccc2nc(C)cc(Nc3ccc(Oc4ccc(Br)c5ccccc45)c(Cl)c3)c2c1 | 1110 nM | 2340 nM | 18300 nM
CCN1CCN(c2nc3ccccn3c(=O)c2/C=C2\SC(=S)N(C(C)C)C2=O)CC1 | 717 nM | 260 nM | > 10000 nM
COc1ccc(C(=O)N2C(C(=O)Nc3ccc(C)cc3)CSC2c2ccc(C(C)(C)C)cc2)cc1 (stereo not drawn) | 1040 nM | 1170 nM | > 2970 nM
Cc1cc(Nc2ccc(C(=O)n3ccnc3)cc2)n2ncnc2n1 | > 1250 nM | > 347 nM | > 10000 nM
CCOc1ccc(C(=O)N2CCN(Cc3ccccc3)CC2)cc1 | > 3670 nM | 322 nM | > 100000 nM
O=[N+]([O-])c1cccc2c(S(=O)(=O)NCCCN(CCO)CCO)cccc12 | > 1180 nM | > 1550 nM | > 10000 nM
CCOc1ccc(C2C(=O)N(C3CCCCC3)CC(=O)N2Cc2ccc(F)cc2)cc1OC (stereo not drawn) | 4560 nM | 4150 nM | > 100000 nM
CCC(c1nc2ccccc2c(=O)n1-c1ccccc1OC)N(CCc1ccccc1)C(=O)Nc1ccccc1OC (stereo not drawn) | 1030 nM | 366 nM | > 10000 nM
O=C(OC(C(=O)NCc1ccco1)c1ccc(F)cc1)c1ccco1 (stereo not drawn) | > 1250 nM | > 327 nM | > 10000 nM
COC(=O)C1=C(C)NC2=C(C(=O)CC(c3ccccc3)C2)C1c1cc(C)sc1SC (stereo not drawn) | 671 nM | 205 nM | > 100000 nM
Nc1c(C(=O)Nc2ccc(F)cc2)sc2nc3c(c(-c4cccs4)c12)CCCC3 | 1130 nM | 1710 nM | > 100000 nM
COc1ccc(C2C(C(=O)NCCN(C)C)c3ccccc3C(=O)N2C2CCCCC2)cc1 (stereo not drawn) | > 427 nM | 1610 nM | > 10000 nM

Compound | EC50 (Plasmodium falciparum [1]) | EC50 (Plasmodium falciparum [2]) | CC50 [3]
N#Cc1ccc(NC(=O)c2cc(Cl)ccc2O)cc1 | 1090 nM | 1010 nM | > 10000 nM
CCc1ccc2[nH]c(=O)c(CN(CCN(CC)CC)C(=S)NCCCN(CC)CC)cc2c1 | 2380 nM | 1390 nM | 45600 nM
CC(C)(C)c1ccc(C(=O)Nc2ccc(NC(=O)c3ccc(-c4cccc([N+](=O)[O-])c4)o3)cc2)cc1 | > 1460 nM | > 429 nM | > 10000 nM
COc1ccc(Nc2cc(C)nc(NCc3ccccc3)n2)cc1 | 151 nM | 427 nM | 16700 nM
CC(=O)Oc1ccc(C(=O)C(C(C)=O)c2ccccc2)c(OC(C)=O)c1 (stereo not drawn) | > 1390 nM | > 1020 nM | > 10000 nM
COc1cc(-c2nc3ccc(N4CCN(C)CC4)cc3[nH]2)cc(OC)c1OC | 733 nM | 5570 nM | 21200 nM
N#CCSc1ncccc1C(=O)NCCc1ccc(Oc2ccccc2)cc1 | 1630 nM | > 130 nM | > 10000 nM
Cc1ccc(-n2c(SCc3ccc(F)cc3)nnc2C(Cc2ccccc2)NC(=O)NC(C)(C)C)cc1 (stereo not drawn) | 330 nM | 125 nM | > 62300 nM
COc1ccc(Nc2nc(NN=Cc3cccc(F)c3)nc(Nc3ccc([N+](=O)[O-])cc3)n2)cc1 | 662 nM | 704 nM | > 100000 nM
O=C(Nc1cccnc1)c1cc(-c2cccnc2)nc2ccc(Br)cc12 | > 12500 nM | 2140 nM | > 100000 nM
FC(F)(F)c1ccc(Nc2nnnc3ccccc23)cc1 | 7720 nM | 7230 nM | > 100000 nM
CCOC(=O)C1=C(C)NC2=C(C(=O)CC(C)(C)C2)C1c1ccccn1 (stereo not drawn) | > 12500 nM | 1260 nM | > 100000 nM
COC(=O)C1=C(C)NC(=Cc2cc(C)n(-c3ccccc3F)c2C)C1=O | 20 nM | 38.3 nM | > 100000 nM
COc1ccc(C2N(Cc3ccccc3)c3ccccc3N2Cc2ccccc2)cc1 | 561 nM | 431 nM | 53000 nM
CCC(C)OC(=O)C1=C(C)NC2=C(C(=O)CC(c3ccc(Cl)cc3)C2)C1c1ccc(Cl)cc1 (stereo not drawn) | 216 nM | 43.8 nM | > 100000 nM
O=[N+]([O-])c1ccc(-c2csc(CO)n2)cc1 | > 12500 nM | 4270 nM | > 100000 nM
CC(C)NC(=O)N1CCN(C(=O)C(Cc2c[nH]c3ccccc23)NC(=O)Nc2cccc(Cl)c2Cl)CC1C (stereo not drawn) | 27.2 nM | 43.9 nM | 57700 nM
CSc1cccc(NC(=O)C2C3C=CC4(O3)C2C(=O)N(Cc2ccc(F)cc2)C4C(=O)NC2CCCC(C)C2C)c1 (stereo not drawn) | 1430 nM | 875 nM | > 100000 nM
COc1ccc(C(=O)C(C#N)=CNC2CCN(Cc3ccccc3)CC2)cc1 | 177 nM | 875 nM | 24800 nM
CC(C)NC(=O)N1CCN(C(=O)COC(c2cccs2)c2cccnc2Cl)CC1 (stereo not drawn) | > 1250 nM | 2020 nM | > 10000 nM
COc1cc(NCCCC(C)Nc2ccnc3cc4ccccc4cc23)c2ncccc2c1 (stereo not drawn) | 83.5 nM | 49.9 nM | 2470 nM
CC1CC2=C(CC1CNCCCN(C)C)C(C)(C)CCC2 (stereo not drawn) | 250 nM | 844 nM | > 10000 nM
